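Tested at 5 concentrations; 48 h exposure; 96-well plates; endpoints linearly interpolated, else capped at highest concentration. Definition used: TGI = concentration required for complete inhibition of growth.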
Key:
Test in all cases: NCI-60 cell line screen, 48 h
SK-MEL-5 melanoma = tested on: SK-MEL-5 melanoma
BT-549 breast = tested on: BT-549 breast
HOP-92 NSCLC = tested on: HOP-92 NSCLC
SN12C renal = tested on: SN12C renal
K-562 leukemia = tested on: K-562 leukemia
MDA-MB-435 = tested on: MDA-MB-435
HS 578T breast = tested on: HS 578T breast
UACC-257 melanoma = tested on: UACC-257 melanoma
NCI-H226 lung = tested on: NCI-H226 lung
CCRF-CEM leukemia = tested on: CCRF-CEM leukemia

Compound	TGI (SK-MEL-5 melanoma)	TGI (BT-549 breast)	TGI (HOP-92 NSCLC)	TGI (SN12C renal)	TGI (K-562 leukemia)	TGI (MDA-MB-435)	TGI (HS 578T breast)	TGI (UACC-257 melanoma)	TGI (NCI-H226 lung)	TGI (CCRF-CEM leukemia)
COC(=O)c1ccc(C)cc1/C=C1\Cc2ccc(C)cc2C1=O	29.7 µM	30 µM	35.2 µM	32.9 µM	42.8 µM	20.2 µM	59.4 µM	51.5 µM	24.9 µM	> 100 µM
COC(=O)C1CCC(=O)N1C(c1ccc(OC)cc1)c1ccc(OC)cc1 (stereo not given)	> 100 µM	> 100 µM	> 100 µM	> 100 µM	> 100 µM	> 100 µM	> 100 µM	> 100 µM	> 100 µM	> 100 µM
CC(C)(C)c1cc(C2=NN(c3ccccc3)C(c3ccccc3)C2)cc(C(C)(C)C)c1O (stereo not given)	> 100 µM	> 100 µM	> 100 µM	> 100 µM	> 100 µM	> 100 µM	> 100 µM	> 100 µM	> 100 µM	> 100 µM
Cc1cc(NC[C@H](O)[C@H](O)[C@H](O)CO)c(Sc2cc(=O)[nH]c(=O)[nH]2)cc1C	> 62.5 µM	> 62.5 µM	> 62.5 µM	> 62.5 µM	> 62.5 µM	> 62.5 µM	> 62.5 µM	> 62.5 µM	> 62.5 µM	> 62.5 µM
CSCCCNC(=O)c1csc(-c2csc(C(CNC(=O)OC(C)(C)C)CNC(=O)OC(C)(C)C)n2)n1	> 100 µM	> 100 µM	> 100 µM	> 100 µM	> 100 µM	> 100 µM	> 100 µM	> 100 µM	> 100 µM	44 µM
Cc1cc(C)c2c(n1)S(=O)(=O)N(CCCN1CCN(c3cccc(C(F)(F)F)c3)CC1)c1c-2nn(C)c1C	> 100 µM	> 100 µM	> 100 µM	> 100 µM	> 100 µM	> 100 µM	> 100 µM	> 100 µM	> 100 µM	> 100 µM
CN1C(=O)[C@@H]2[C@@H]3c4ccccc4N(S(=O)(=O)C(F)(F)F)[C@@H]3c3[nH]c4ccccc4c3[C@@H]2C1=O	> 100 µM	> 100 µM	35.4 µM	> 100 µM	> 100 µM	> 100 µM	> 100 µM	> 100 µM	> 100 µM	> 100 µM
CCOC(=O)C1OC(C2(C)OC3(OC4(C=CC3O)OC(C(C)C(=O)C(C)C(O)C(C)CC(C)c3c(Cl)cc(C)c(O)c3C(=O)O)C(C)CC4C)C(C)C2OC)CC1O (stereo not given)	5.59 µM	17.2 µM	5.77 µM	4.84 µM	5.16 µM	1.22 µM	11.7 µM	8.54 µM	1.84 µM	1.04 µM

Reference: PubChem BioAssay (NCI)
